Results on 18 molecules are retold here after ChEMBL document CHEMBL1201862, “PubChem BioAssay data set” (2004).

Each structure is given as a SMILES string. Calls of active or inactive are those of the source.

A short description of assay [1]: intracellular Trypanosoma cruzi inhibitors in host cells – cell-based, plate reader, cherry-pick samples, set 3, dose response (AID 651818).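 Further: compounds incubated with infected cells for about four days.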 The class given is functional.
Assay [2] addresses T1, Polyadenylate-binding protein 1 (Homo sapiens, UniProt P11940). Put plainly: MLLE binding blockers, Cy5 peptide tracer – biochemical, fluorescence polarization, Cy5-PAM2 peptide, secondary, miRNA deadenylation inhibitor project, dose response (AID 602260). The class given is functional. To be noted: read-out: IC50_Mean. (In general: Polarisation of emitted light reports the rotation of a fluorescent probe.)

In assay [3] the target is T1, Polyadenylate-binding protein 1. Put plainly: MLLE domain peptide-binding blockers, IC50 – biochemical, fluorescence polarization, FITC-PAM2 peptide, dose response (AID 602259). Particulars: read-out: IC50_Mean. The class given is functional.
Assay [4] addresses T2, Caspase-3 (Homo sapiens, UniProt P42574).
T2 sequence (P42574 whole entry): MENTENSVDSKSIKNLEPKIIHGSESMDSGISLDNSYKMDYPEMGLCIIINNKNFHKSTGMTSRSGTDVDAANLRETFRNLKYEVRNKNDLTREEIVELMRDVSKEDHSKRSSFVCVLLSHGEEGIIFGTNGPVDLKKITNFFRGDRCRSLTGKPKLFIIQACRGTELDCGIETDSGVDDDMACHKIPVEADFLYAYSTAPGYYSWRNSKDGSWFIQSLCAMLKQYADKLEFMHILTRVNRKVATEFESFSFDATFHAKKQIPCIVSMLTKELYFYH
The class given is functional.

The target in assay [5] is T3, Sentrin-specific protease 7 (Homo sapiens, UniProt Q9BQF6).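 Further: Luminescence-based dose-response confirmation of ultra-high-throughput screening hits, measuring inhibition of SENP7.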
T3 sequence (Q9BQF6 whole entry): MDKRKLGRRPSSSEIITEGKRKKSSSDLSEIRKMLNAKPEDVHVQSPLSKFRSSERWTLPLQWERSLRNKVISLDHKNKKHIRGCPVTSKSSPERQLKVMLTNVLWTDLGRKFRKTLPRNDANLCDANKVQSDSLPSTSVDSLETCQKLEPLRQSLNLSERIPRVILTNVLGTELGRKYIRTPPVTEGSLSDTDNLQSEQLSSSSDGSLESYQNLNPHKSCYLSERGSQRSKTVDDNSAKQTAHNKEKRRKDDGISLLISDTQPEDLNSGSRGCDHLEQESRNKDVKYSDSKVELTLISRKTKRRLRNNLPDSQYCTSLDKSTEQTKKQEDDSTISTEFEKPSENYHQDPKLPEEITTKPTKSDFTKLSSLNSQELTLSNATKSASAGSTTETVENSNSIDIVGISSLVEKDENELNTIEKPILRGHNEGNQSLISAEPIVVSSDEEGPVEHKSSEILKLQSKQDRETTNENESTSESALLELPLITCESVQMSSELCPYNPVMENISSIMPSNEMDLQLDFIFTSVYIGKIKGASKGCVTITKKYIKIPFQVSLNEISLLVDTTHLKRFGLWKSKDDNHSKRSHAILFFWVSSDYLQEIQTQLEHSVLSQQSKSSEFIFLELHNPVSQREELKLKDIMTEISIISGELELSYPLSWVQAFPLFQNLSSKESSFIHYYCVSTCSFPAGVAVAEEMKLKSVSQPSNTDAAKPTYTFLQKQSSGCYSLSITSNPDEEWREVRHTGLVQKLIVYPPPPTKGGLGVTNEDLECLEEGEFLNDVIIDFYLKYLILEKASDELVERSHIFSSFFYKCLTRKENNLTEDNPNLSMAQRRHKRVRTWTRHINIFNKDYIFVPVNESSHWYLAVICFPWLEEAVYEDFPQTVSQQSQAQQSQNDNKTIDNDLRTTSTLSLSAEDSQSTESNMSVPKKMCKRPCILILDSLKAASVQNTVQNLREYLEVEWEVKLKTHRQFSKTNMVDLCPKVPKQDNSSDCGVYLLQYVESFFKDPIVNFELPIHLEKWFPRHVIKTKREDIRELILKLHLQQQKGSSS
Format: functional.

The target in assay [6] is T4, Sentrin-specific protease 6 (Homo sapiens, UniProt Q9GZR1).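 Further: Luminescence-based dose-response confirmatory assay of SENP6 inhibition, following up an ultra-high-throughput screen.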
T4 sequence (Q9GZR1 whole entry): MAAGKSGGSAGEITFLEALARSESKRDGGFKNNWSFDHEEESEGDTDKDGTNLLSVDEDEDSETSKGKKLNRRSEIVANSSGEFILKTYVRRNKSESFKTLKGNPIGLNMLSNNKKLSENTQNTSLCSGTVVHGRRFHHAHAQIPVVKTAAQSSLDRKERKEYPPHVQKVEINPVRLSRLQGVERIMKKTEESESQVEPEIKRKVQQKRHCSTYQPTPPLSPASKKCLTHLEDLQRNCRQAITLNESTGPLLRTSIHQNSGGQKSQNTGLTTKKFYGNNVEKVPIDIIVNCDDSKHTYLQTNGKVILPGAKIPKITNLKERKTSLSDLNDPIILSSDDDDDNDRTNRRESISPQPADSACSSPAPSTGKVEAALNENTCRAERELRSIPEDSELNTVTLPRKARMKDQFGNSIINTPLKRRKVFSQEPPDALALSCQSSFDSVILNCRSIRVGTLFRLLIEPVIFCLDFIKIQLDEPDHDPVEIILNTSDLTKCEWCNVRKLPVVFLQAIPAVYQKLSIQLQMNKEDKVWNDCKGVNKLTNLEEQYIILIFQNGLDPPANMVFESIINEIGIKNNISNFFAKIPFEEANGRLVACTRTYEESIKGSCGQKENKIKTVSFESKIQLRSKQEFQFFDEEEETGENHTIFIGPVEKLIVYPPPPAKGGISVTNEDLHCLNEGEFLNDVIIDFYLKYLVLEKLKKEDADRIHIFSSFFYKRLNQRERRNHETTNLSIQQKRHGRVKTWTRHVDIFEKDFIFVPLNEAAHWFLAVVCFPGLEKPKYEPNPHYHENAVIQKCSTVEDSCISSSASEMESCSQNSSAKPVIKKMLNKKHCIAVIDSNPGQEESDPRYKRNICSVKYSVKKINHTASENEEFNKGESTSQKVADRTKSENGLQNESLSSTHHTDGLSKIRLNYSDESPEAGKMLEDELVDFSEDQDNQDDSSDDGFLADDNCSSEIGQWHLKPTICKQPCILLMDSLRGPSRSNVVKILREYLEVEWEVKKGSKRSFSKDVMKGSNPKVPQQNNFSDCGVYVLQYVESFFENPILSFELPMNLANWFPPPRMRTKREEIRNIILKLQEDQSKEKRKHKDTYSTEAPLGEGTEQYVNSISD
The class given is functional.

For assay [7], the target named is T5, Sentrin-specific protease 8 (Homo sapiens, UniProt Q96LD8).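 Further: luminescence read-out of SENP8 inhibition, dose-response confirmation following an ultra-high-throughput screen.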
T5 sequence (Q96LD8 whole entry): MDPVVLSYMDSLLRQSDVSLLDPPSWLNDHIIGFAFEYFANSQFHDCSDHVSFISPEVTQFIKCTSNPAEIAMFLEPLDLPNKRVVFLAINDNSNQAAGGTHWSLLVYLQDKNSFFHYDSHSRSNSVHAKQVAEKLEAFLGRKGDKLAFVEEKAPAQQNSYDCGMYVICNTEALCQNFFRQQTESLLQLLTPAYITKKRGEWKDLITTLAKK
Format: functional.

For assay [8], the system named is Vero. Put plainly: cells. The class given is functional. Particulars: Chlorocebus sabaeus.
Assay [9] deals with T6, Caspase-6 (Homo sapiens, UniProt P55212).
T6 sequence (P55212 whole entry): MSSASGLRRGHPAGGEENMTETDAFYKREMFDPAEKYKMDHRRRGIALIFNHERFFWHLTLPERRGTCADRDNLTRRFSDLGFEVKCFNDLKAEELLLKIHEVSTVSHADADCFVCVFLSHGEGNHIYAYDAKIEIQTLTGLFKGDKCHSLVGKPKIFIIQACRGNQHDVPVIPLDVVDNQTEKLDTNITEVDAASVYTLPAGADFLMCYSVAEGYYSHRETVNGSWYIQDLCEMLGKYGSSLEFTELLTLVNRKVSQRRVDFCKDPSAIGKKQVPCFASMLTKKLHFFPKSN
Put plainly: inhibition of CASP6 peptide cleavage – biochemical, VEID-R110 fluorescence, cherry-pick, dose response (AID 720632).

Assay [10] in a line: viability of uninfected HEp-2 cells – cell-based, HTS, cytotoxicity control for RSV inhibitor project, dose response (AID 2410). The class given is functional. To be noted: human respiratory syncytial virus.
For assay [11], the target named is T7, Ubiquitin-conjugating enzyme E2 N (Homo sapiens, UniProt P61088).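 Further: Dose-response confirmation in a TR-FRET assay detecting UBC13-driven polyubiquitin chain formation, inhibition measured.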
T7 sequence (P61088 whole entry): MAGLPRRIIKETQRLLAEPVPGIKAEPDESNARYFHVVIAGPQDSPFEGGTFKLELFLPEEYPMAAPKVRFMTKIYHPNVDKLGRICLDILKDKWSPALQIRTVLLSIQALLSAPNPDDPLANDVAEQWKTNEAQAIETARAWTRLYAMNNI
The class given is functional.

Assay [12] in a line: cells. The class given is functional, cell-based.
The nature of assay [13]: Trypanosoma cruzi growth suppression in host cells – NIH3T3 host cells, beta-gal luminescence, confirmation (AID 2044).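 Further: intracellular parasites grown in NIH/3T3 mouse fibroblasts as host cells; luminescent beta-galactosidase reporter signal from transgenic T. cruzi replicating inside host cells; inhibitors lower the luminescence signal.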 The class given is functional, cell-based.
Assay [14] in a line: cells. Format: functional, cell-based. The source holds these as a separate data set.
The nature of assay [15]: NIH3T3 cell viability loss – ATP luminescence, mouse fibroblasts, counter-screen, dose response (AID 2010).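 Further: cells exposed to compound for about 90 hours before reading.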 Format: functional, cell-based. (In general: A counterscreen serves to expose hits that act by an unwanted route or on another target.)
Assay [16] relates to INS1. Put plainly: INS-1E survival protection against cytokine death – cell-based, luminescence, retest, dose response (AID 449756).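 Further: cell death triggered by IL-1 beta plus TNF-alpha plus IFN-gamma mixture; protective hits raise ATP signal compared with cytokine alone wells.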 The class given is functional. Particulars: Rattus norvegicus.

The term AC50 denotes the concentration at which the activity in the assay is half-maximal. The term CC50 denotes the concentration giving 50% cytotoxicity. One may read the EC50 as the concentration giving half of the maximal effect.

T1 sequence (P11940 whole entry): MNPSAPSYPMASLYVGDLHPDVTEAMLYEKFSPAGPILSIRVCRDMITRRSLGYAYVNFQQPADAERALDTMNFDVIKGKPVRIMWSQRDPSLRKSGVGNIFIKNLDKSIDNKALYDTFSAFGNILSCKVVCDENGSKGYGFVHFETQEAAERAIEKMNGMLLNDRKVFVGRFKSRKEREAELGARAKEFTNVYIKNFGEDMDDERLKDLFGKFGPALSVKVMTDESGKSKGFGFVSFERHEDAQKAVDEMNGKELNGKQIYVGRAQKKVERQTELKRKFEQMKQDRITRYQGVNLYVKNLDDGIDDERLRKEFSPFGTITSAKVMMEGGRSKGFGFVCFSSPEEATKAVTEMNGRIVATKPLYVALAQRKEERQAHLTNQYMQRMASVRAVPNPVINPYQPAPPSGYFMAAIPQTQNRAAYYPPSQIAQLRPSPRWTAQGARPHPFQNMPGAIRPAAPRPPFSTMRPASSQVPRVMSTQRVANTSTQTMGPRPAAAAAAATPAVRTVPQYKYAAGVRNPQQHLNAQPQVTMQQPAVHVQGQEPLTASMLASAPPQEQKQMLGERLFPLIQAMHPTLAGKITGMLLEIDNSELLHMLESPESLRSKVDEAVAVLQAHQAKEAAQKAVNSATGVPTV

For `C[C@@H]1CN([C@H](C)CO)C(=O)c2cccc(NS(=O)(=O)c3cccs3)c2O[C@@H]1CN(C)C(=O)Nc1ccc(C(F)(F)F)cc1`, the AC50 in [1] is 8.07 µM (active).

`CCSc1nc(=S)n(-c2ccccc2)c(C)c1C(C)=O`: the IC50 in [2] and in [3] was > 66 µM (inactive) throughout.

With `C[C@H]1CN([C@@H](C)CO)C(=O)c2cc(NC(=O)Nc3ccc(C(F)(F)F)cc3)ccc2O[C@H]1CN(C)Cc1ccc2c(c1)OCO2`, in assay [1], the AC50 was 4.18 µM (active).

Regarding `C[C@H]1CN([C@@H](C)CO)C(=O)Cc2cc(NC(=O)Cc3ccccc3)ccc2O[C@H]1CN(C)Cc1ccc(-c2ccccc2)cc1`, in assay [1], the AC50 is 2.79 µM (active).

Regarding `CCN(CC)c1ccc(C(=O)OCC(=O)Nc2sccc2C#N)cc1`, the IC50 in assay [4] was 37.3 µM (active); in assay [5], 11.6 µM (active); in assay [6], 11.5 µM (active); in [7], 89.1 µM (active).

As to `COc1ccc(CNC(=O)CN(Cc2ccc(Cl)cc2)C(=O)c2csnn2)cc1`, the IC50 in [2] and in assay [3] was > 66 µM (inactive) each time.

In the case of `O=C(Nc1ccccc1[N+](=O)[O-])c1cc(S(=O)(=O)N2CCOCC2)cs1`, in assay [8], the CC50 is 18.3 µM (active).

Turning to `O=C(NCc1ccccc1Cl)c1ccc2[nH]cnc2c1`, in assay [9], the AC50 was 28.1 µM (active).

`CSC1=NC(/C=C/c2ccc(Cl)cc2Cl)=CC(C)(C)N1`: in assay [8], the CC50 was 17.4 µM (active).

`C[C@@H]1CN([C@H](C)CO)C(=O)Cc2cc(NS(=O)(=O)c3ccc(Cl)cc3)ccc2O[C@@H]1CN(C)Cc1ccc(Cl)c(Cl)c1`: the AC50 in assay [1] is 3.44 µM (active).

Regarding `O=C(O)c1ccccc1NS(=O)(=O)c1ccc(NN=Cc2cccc(Cl)c2)c([N+](=O)[O-])c1`, the AC50 in assay [9] was 24.5 µM (active).

Turning to `Fc1cccc2sc(N3CCCCC3)nc12`, the IC50 was 10.7 µM (active) in [4], 7.98 µM (active) in assay [5], 30.3 µM (active) in assay [6] and 60.5 µM (active) in assay [7].

Consider `NC(=S)N=Nc1c(O)[nH]c2cc(F)c(F)cc12`, for which the half-maximal cytotoxic concentration (CC50) in [10] was 40 µM (active). Also, the IC50 in assay [11] is > 20 µM (inactive); in assay [2] it was > 66 µM (inactive); in assay [3] it was > 66 µM (inactive).

`COc1ccc(-c2nc3cnccn3c2NC(C)(C)CC(C)(C)C)cc1O`: in [8], the CC50 was > 25 µM (active).

Take `O=C(CSC1c2ccccc2-c2ccccc21)N/N=C/c1ccccc1O`: the EC50 in [12] was 12.9 µM (active); in assay [13], 2.55 µM (active); in assay [14], > 350 µM (not active); in [15], 9.08 µM (active). The AC50 in assay [16] is 2.03 µM (active). Further, the IC50 in assay [2] and in assay [3] was > 66 µM (inactive) each time.

As for `COc1nccnc1NS(=O)(=O)c1ccc(NC(=S)NC(=O)c2ccc(F)cc2)cc1`, the IC50 in assay [2] and in assay [3] was > 66 µM (inactive) throughout.

Take `C[C@@H]1CN([C@H](C)CO)C(=O)c2cc(NC(=O)Nc3cccc4ccccc34)ccc2O[C@H]1CN(C)Cc1ccc(-c2ccccc2)cc1`: in assay [1], the AC50 is 2.17 µM (active).

As for `COc1ccc(S(=O)(=O)Nc2ccc3c(c2)CC(=O)N([C@@H](C)CO)C[C@H](C)[C@@H](CN(C)Cc2ccc(-c4ccccc4)cc2)O3)cc1`, the AC50 in assay [1] was 2.07 µM (active).
